Consider eight compounds from publication PMC9106008, “Design, Synthesis and Biological Evaluation of N-phenylindole Derivatives as Pks13 Inhibitors againstMycobacterium tuberculosis” (Molecules, 2022).

Values after ≈ are worked out from the molar mass of the structure shown. Where two headings read alike, the source gives them in different places.

Series [1] has as its system Mtb H37Rv strain. As to the kind of experiment: microplate alamar blue assay (MABA), MIC. It is filed as cell-based, Mycobacterium tuberculosis. Particulars: Mycobacterium tuberculosis, H37RV, lowest concentration leading to at least 90% inhibition of bacterial growth signal, average of three measurements, read-out: MIC.
In another series the target is Pks13-TE (Mycobacterium tuberculosis, UniProt I6X8D2). As to the kind of experiment: biochemical. It is filed as binding. Particulars: Pks13-TE 30 µM, 3% DMSO, average of three measurements; for ΔTm at 150 µM: compound 150 µM (1:5); for ΔTm at 300 µM: compound 300 µM (1:10).
For series [2], the system named is Mtb H37Rv strain. Particulars: MABA, cited from earlier work.
The nature of series [3]: liver microsome stability assay. As to conditions: for Remaining (T = 60 min) / T1/2: human liver microsomes; for Remaining (T = 60 min): 60 min incubation; for T1/2: 0.1 µM compound, NADPH 1 mM, 37 °C.
The conditions of series [4]: human, microsomes, 0.1 µM, pH 7.4; for Remaining (T = 60 min): 1 h.
The nature of another series: in vitro. Particulars: human, microsomes, pH 7.4.

Chain of Pks13-TE (I6X8D2 1451-1733): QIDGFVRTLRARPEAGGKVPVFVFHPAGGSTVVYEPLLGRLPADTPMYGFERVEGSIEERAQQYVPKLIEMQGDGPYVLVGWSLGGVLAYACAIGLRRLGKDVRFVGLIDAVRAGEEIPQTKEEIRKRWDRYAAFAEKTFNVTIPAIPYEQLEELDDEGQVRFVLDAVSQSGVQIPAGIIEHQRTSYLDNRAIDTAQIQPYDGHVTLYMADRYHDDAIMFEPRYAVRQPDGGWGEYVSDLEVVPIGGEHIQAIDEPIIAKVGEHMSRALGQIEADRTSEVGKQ

For orientation: MIC means the smallest concentration in the dilution series that meets the test's criterion for growth inhibition. For orientation: ΔTm means the change in melting temperature against a reference sample. On to `CCOC(=O)c1c(C)n(-c2ccccc2)c2ccc(O)c(CN3CCCCC3)c12` [Compound 28, Ethyl 5-hydroxy-2-methyl-1-phenyl-4-(piperidin-1-ylmethyl)-1H-indole-3-carboxylate], for which the MIC with Mtb H37Rv strain [1] turned out to be 8 µg/mL (≈ 20.4 µM). On Pks13-TE, the ΔTm at 150 µM worked out at 8.6 ± 0.01 °C and the ΔTm at 300 µM came to 7.8 ± 0.04 °C.

Turning to `O=c1oc2cc(O)ccc2c2oc3ccc(O)c(CN4CCCCC4)c3c12` [Compound 7, reference compound], the MIC with Mtb H37Rv strain [2] (reference compounds for comparison) was 0.0039 µg/mL (≈ 0.0107 µM). On Pks13-TE, the ΔTm at 150 µM was found to be 11.4 ± 0.03 °C and the ΔTm at 300 µM turned out to be 10.5 ± 0.01 °C.

For the compound `CCOC(=O)c1c(-c2ccccc2)[nH]c2ccc(O)c(CN3CCCCC3)c12` [Compound 9], the MIC with Mtb H37Rv strain [2] (reference compound for comparison) was 32 µg/mL (≈ 84.6 µM).

For the compound `O=C(O)Cc1ccccc1Nc1c(Cl)cccc1Cl` [Diclofenac], in series [3], the “Remaining (T = 60 min)” value is on record as 0.1%. In addition, in series [3] (human, scaled from CLint(mic) with 45 mg microsomal protein/g liver, 20 g liver/kg), the “CLint(liver)” value is 223.1 mL/min/kg.

As for `CC(=O)c1c(C)n(-c2ccc(Br)cc2)c2ccc(O)c(CN3CCCCC3)c12` [Compound 58, 1-(1-(4-bromophenyl)-5-hydroxy-2-methyl-4-(piperidin-1-ylmethyl)-1H-indol-3-yl)ethan-1-one], the MIC with Mtb H37Rv strain [1] came out at 0.125 µg/mL (≈ 0.283 µM). In series [3], the T1/2 stood at 58.0 min. In addition, in series [4], the “CLint(liver)” value was 21.5 mL/min/kg, the “CLint(mic)” value is on record as 23.9 µL/min/mg and the “Remaining (T = 60 min)” value was found to be 47.3%. On Pks13-TE, the ΔTm at 150 µM was determined as 9.5 ± 0.04 °C and the ΔTm at 300 µM amounted to 7.6 ± 0.01 °C.

As a reminder, the CLint scaled is the capacity of the preparation to metabolise the compound, expressed as a volume cleared per time. Low values mean slow turnover, high ones rapid turnover. With `C[C@]12CC[C@H]3[C@@H](CCC4=CC(=O)CC[C@@]43C)[C@@H]1CC[C@@H]2O` [Testosterone], in series [3], the T1/2 was determined as […] and the “Remaining (T = 60 min)” value is listed as […]. The compound further gave a CLint scaled at 0.1 µM in series [3] (human, microsomes, pH 7.4) of […].

In the case of `CC(=O)c1c(C)n(-c2ccc(-c3ccccc3)cc2)c2ccc(O)c(CN3CCCCC3)c12` [Compound 45, 1-(1-([1,1′-biphenyl]-4-yl)-5-hydroxy-2-methyl-4-(piperidin-1-ylmethyl)-1H-indol-3-yl)ethan-1-one], in the series on Mtb H37Rv strain [1], the MIC was 0.0625 µg/mL (≈ 0.143 µM). Moreover, on Pks13-TE, the ΔTm at 150 µM amounted to 14 ± 0.04 °C and the ΔTm at 300 µM came to 13.2 ± 0.65 °C.

The microsomal CLint is the capacity of the preparation to metabolise the compound, expressed as a volume cleared per time. Higher therefore signals faster metabolism. In general, half-life refers to how long it takes for the measured level to halve. For `CC(=O)c1c(C)n(-c2ccc(N3CCCCC3)cc2)c2ccc(O)c(CN3CCCCC3)c12` [Compound 48, 1-(5-hydroxy-2-methyl-1-(4-(piperidin-1-yl)phenyl)-4-(piperidin-1-ylmethyl)-1H-indol-3-yl) ethan-1-one], in “in vitro”, the CLint scaled at 0.1 µM worked out at 60.2 mL/min/kg and the microsomal CLint at 0.1 µM is 66.9 µL/min/mg. Moreover, in the series with Mtb H37Rv strain [1], the MIC is 0.125 µg/mL (≈ 0.281 µM). Also, the half-life at 0.1 µM in series [3] (human, liver microsomes, pH 7.4) is 20.7 min. Moreover, the “Remaining (T = 60 min)” value in series [4] is 11.3%. For the same compound, on Pks13-TE, the ΔTm at 150 µM came to 14.6 ± 0.04 °C and the ΔTm at 300 µM amounted to 14 ± 0.01 °C.
